According to patent US6900239B2, “Tumor chemopotentiation using isocoumarin derivatives” (ILWZ ILEX Products, Inc., priority 2000, dated 2005):

What was measured:
[1] = test system: HT1080 (reticulum blast sarcoma cells); assay: Cell growth (WST-1) in the presence of NM-3; type: cell-based; conditions: Homo sapiens, HT-1080, 72 h; 3 days culture with NM-3
Description: (§1) To determine the extent to which NM-3 [2-(8-hydroxy-6-methoxy-1-oxo-1H-2-benzopyran-3-yl) propionic acid] inhibited the proliferation of, or was cytotoxic toward, human tumor cells and normal mouse cells, a variety of cell lines were grown in the presence of NM-3. The human cell lines used were K562 (leukemia cells), HT29 (colon tumor cells) HT1080 (reticulum blast sarcoma cells), and MCF7 (breast tumor cells). The mouse cells used were NIH3T3 cells (fibroblasts). All cell lines were cultured in 96-well plates to a density of 2-5×10^3 cells/well. Culture medium (RPMI 1640 plus 10% FBS) alone or containing NM-3 at one of several concentrations tested was then added to the cultures which were allowed to grow for an additional 3 days. To assess cell growth, 10 μl of WST-1 reagent (a chromogenic substrate for living cells) was added to each well and incubation continued for 3 hrs at 37° C. Absorbance at 450 nm was then determined using a plate reader.

[2] = test system: MCF7 (breast tumor cells); assay: Cell growth (WST-1) in the presence of NM-3; type: cell-based; conditions: Homo sapiens, MCF7, 72 h; 3 days culture with NM-3
Description: as §1

[3] = test system: human tumor cells and normal mouse cells; assay: Cell growth (WST-1), summary over all cell lines; type: cell-based
Description: as §1

B16-BL6 melanoma cells = assay: Experimental tumor metastasis (lung colonies); type: in vivo, BDF1 mice; conditions: for Inhibition (%): days 1~13; for Number of lung metastases (Mean ± S.D.): days 1~13, counted day 14
Excerpt: To determine the antitumor effect of NM-3 on metastatic tumor growth, B16-BL6 melanoma cells (2×10^4 cells per mouse) were transplanted into BDF1 mice (female, 5 weeks old) via the tail vein. NM-3 was continuously administered via the oral route for 13 days following transplantation of the tumor cells. On day 14, the lungs were excised and fixed, and the metastatic colony numbers were counted.

colon 26 adenocarcinoma = assay: Combination with cyclophosphamide, survival; type: in vivo, BALB/c mice
Description: To determine the effect on tumor growth of NM-3 treatment combined with simultaneous cyclophosphamide treatment, colon 26 adenocarcinoma cells (5×10^4 cells per mouse) were subcutaneously transplanted into BALB/c mice (female, 7 weeks old) in the inguinal area. NM-3 was continuously orally administered from day 1 to day 72 after the transplantation except on day 14 when cyclophosphamide was dosed.

[4] = test system: MDAMB-435 human breast tumor xenografts; assay: MDAMB-435 orthotopic model, NM-3 with paclitaxel, first study; type: in vivo, female NCRNU nude mice; conditions: NM-3 100 mg/kg I.P. daily alone
Excerpt: In order to determine the effect of the combination of NM-3 with the cytotoxic drug, paclitaxel on human breast tumor xenografts, female NCRNU nude mice were implanted with MDAMB-435 cells into the subaxillary mammary fat pad. […]

[5] = test system: Lewis Lung Carcinoma (LLC); assay: NM-3 and ionizing radiation, tumor growth; type: in vivo, C57BL/6 nude mice
Description: The effects of NM-3 and IR on tumor growth were assessed in Lewis Lung Carcinoma (LLC), Seg-1, and SQ-20B tumors implanted in C57BL/6 nude mice.
By day 7, LLC tumors in the control group and the NM-3 group grew to 8.02±1.24 and 6.19±0.44 times original volume, respectively. Animals in these treatment groups were sacrificed on day 7 due to tumor burden. LLC tumors in the IR (20+20 Gy) group initially grew and then regressed to 1.06±0.08 times original volume (day 7). Regression was followed by regrowth to 2.98±0.83 times original volume at day 15 when the experiment was terminated. […] (FIG. 8A)

[6] = test system: MM1.S human multiple myeloma cells; assay: Cell viability by MTT assay; type: cell-based
Description: NM-3 was dissolved in Mg^2+ and Ca^2+ free phosphate buffered saline (PBS) by adding appropriate volume of 10 N NaOH (final pH<7.0). DEX was dissolved in absolute ethanol and diluted with PBS. Final concentration of ethanol in the culture medium was 0.5% or less. DOX was dissolved in PBS.
The human multiple myeloma cell line MM1.S was maintained in RPMI1640 medium supplemented with 10% fetal bovine serum, 100 units/ml penicillin, and 100 μg/ml streptomycin at 37° C. in an atmosphere of 5% CO2 in air. Cells (3×10^4 cells/well) were seeded in 96 well-plates and incubated with increasing concentrations of DEX or DOX in the presence or absence of NM-3. NM-3 was added at concentrations of 0, 50, 100 and 200 μg/ml 2 hours before the addition of DOX or DEX. After 24 hours of DOX or DEX exposure, 10 μl of MTT reagent (Roche Molecular Biochemicals, final concentration 0.5 mg/ml) was added to each well and allowed to incubate for 4 hours. After the incubation, 100 μl of solubilization solution (10% sodium dodecyl sulfate in 0.01M HCl) was added to each well and allowed to incubate overnight. Optical density at 565 nm was determined using a spectrophotometer (Molecular Devices Corp.).

[7] = test system: MM1.S human multiple myeloma cells; assay: Cell cycle profile (PI staining, sub-G1 cells); type: cell-based
Description: Apoptosis was determined by staining cells with annexin V-FITC and propidium iodide (PI). Cells were treated with DEX in the presence or absence of NM-3. NM-3 was added 2 hours before the addition of DEX. After 24 hours of DEX exposure, cells were washed twice with cold PBS, resuspended in binding buffer (10 mM HEPES/NaOH (pH 7.4), 140 mM NaCl, 2.5 mM CaCl2), and then stained with annexin V-FITC (Clontech Laboratories) and PI (Boehringer-Manheim). Apoptosis was analyzed by using a flow cytometer (EPICS XL-MCL, Coulter Corp). The cultured cells were also subjected to cell cycle analysis. Briefly, cells were washed twice with PBS and fixed with 70% ethanol. Cells were then washed with 0.5 ml PBS and 1.0 ml phosphate-citric acid buffer (0.2 M Na2HPO4 and 0.1 M citric acid (pH 7.8)), treated with 200 μg/ml RNase for 15 min at 37° C., and stained with 50 μg/ml PI for 30 min at room temperature in the dark. Cells were filtered through 35-μm diameter mesh to remove clumps. Nuclear staining was analyzed by a flow cytometer. Cells with fractional DNA content located on DNA frequency histograms to the left of the G1 peak (sub-G1 cells) were identified as apoptotic cells.

[8] = NM-3 1 mg/kg p.o. days 1-13, 15-72 alone
[9] = NM-3 5 mg/kg p.o. days 1-13, 15-72 alone

COc1cc(O)c2c(=O)oc(C(C)C(=O)O)cc2c1 (centres unmarked) [NM-3, 2-(8-hydroxy-6-methoxy-1-oxo-1H-2-benzopyran-3-yl) propionic acid]
IC50 [1]: 300 µg/mL
IC50 [2]: 223 µg/mL
IC50 [3]: > 100 µg/mL
Inhibition (%) (B16-BL6 melanoma cells; 0.08 mg/kg p.o.): −5.3%
Number of lung metastases (Mean ± S.D.) (B16-BL6 melanoma cells; 0.08 mg/kg p.o.): 88.7 ± 16.1
Inhibition (%) (B16-BL6 melanoma cells; 0.31 mg/kg p.o.): 24.0%
Number of lung metastases (Mean ± S.D.) (B16-BL6 melanoma cells; 0.31 mg/kg p.o.): 64.0 ± 23.8
Inhibition (%) (B16-BL6 melanoma cells; 1.25 mg/kg p.o.): 13.8%
Number of lung metastases (Mean ± S.D.) (B16-BL6 melanoma cells; 1.25 mg/kg p.o.): 72.6 ± 20.6
Inhibition (%) (B16-BL6 melanoma cells; 5.0 mg/kg p.o.): 18.8%
Number of lung metastases (Mean ± S.D.) (B16-BL6 melanoma cells; 5.0 mg/kg p.o.): 68.4 ± 16.9
Number of pleural metastatic foci versus control (B16-BL6 melanoma cells; 0.08 to 5 mg/kg p.o.): reduction in the number of pleural metastatic foci
Mean Survival Days (days ± S.D.) (colon 26 adenocarcinoma; [8]): 33.9 ± 13.6 days
T/C (%) (colon 26 adenocarcinoma; [8]): 102.7%
Mean Survival Days (days ± S.D.) (colon 26 adenocarcinoma; [9]): 23.5 ± 3.7 days
T/C (%) (colon 26 adenocarcinoma; [9]): 71.2%
Survival times versus control (colon 26 adenocarcinoma; NM-3 alone, 1 or 5 mg/kg): did not increase survival times
% Tumor Growth Inhibition [4]: 15.29%
Final Tumor Wt. (mg) +/− SEM [4]: 180.0 ± 18.13 mg
Mice with Complete Shrinkage ([4]; n 9): 0
Tumor volume ([5]; NM-3 alone, day 7): 6.19±0.44 times original volume
Mean tumor volume compared with IR alone ([5]; NM-3 combined with IR (20+20 Gy), day 3, 4, 5, 9, 11, 13 and 15): significantly reduced mean tumor volume
Potentiation of DEX-induced cell death ([6]; NM-3 50-200 μg/ml added 2 hours before DEX, 24 hours): potentiated DEX-induced cell death
Cell viability ([6]; NM-3 alone, 50-200 μg/ml): only slightly decreased the cell viability
Cell cycle profiles ([7]; NM-3 alone, 50-200 μg/ml): only nominal effects
DEX-induced sub-G1 cells (apoptotic cells) ([7]; NM-3 with DEX 1 μM, 24 hours, concentration-dependent): increased DEX-induced sub-G1 cells
